Data from patent publication US12410208B2, “(2-acetamidyl)thio-beta-D-galactopyranoside derivatives” (Idorsia Pharmaceuticals Ltd, priority 2020, dated 2025).
Like-named read-outs stand apart in the source and are kept apart here.

Tests used:
[1] = target: biotinylated human Gal-3 (hGal-3) (Homo sapiens, UniProt P17931); test: Competitive binding assay: biotinylated hGal-3 binding to microplate-adsorbed asialofetuin (ASF), spectrophotometric
How it was run: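 Serially diluted compounds competed with asialofetuin on the plate for biotinylated human Gal-3 during a 3 h incubation at 4° C. Streptavidin-peroxidase with ABTS gave the spectrophotometric signal. IC50 values were averaged over repeat runs.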

human Gal-1 (hGal-1) = human Gal-1 (hGal-1) (Homo sapiens, UniProt P09382); test: Competitive binding assay: biotinylated hGal-1 binding to microplate-adsorbed asialofetuin (ASF), spectrophotometric; conditions: hGal-1 binding to asialofetuin; Table 15; R and S epimers of selected Examples also listed; read-out: IC50 (Galectin-1 inhibition)
How it was run: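 Spectrophotometric competition readout with ABTS after streptavidin-peroxidase (80 ng/mL, 1 h, 4 °C) detection of bound biotinylated hGal-1.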

[2] = Gal-3 inhibition, Table 5, read-out: IC50
[3] = Table 13, hGal-3, read-out: IC50 (Gal-3 inhibition)
[4] = Table 12, hGal-3, read-out: IC50 (Gal-3 inhibition)

Sequence of biotinylated human Gal-3 (hGal-3) (P17931 whole entry): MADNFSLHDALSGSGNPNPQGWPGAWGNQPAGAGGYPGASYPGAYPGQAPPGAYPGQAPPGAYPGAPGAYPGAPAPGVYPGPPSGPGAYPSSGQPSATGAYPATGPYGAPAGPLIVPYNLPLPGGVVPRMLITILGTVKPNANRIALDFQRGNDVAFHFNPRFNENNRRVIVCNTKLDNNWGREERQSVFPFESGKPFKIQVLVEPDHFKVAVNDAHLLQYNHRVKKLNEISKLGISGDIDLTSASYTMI
Sequence of human Gal-1 (hGal-1) (P09382 whole entry): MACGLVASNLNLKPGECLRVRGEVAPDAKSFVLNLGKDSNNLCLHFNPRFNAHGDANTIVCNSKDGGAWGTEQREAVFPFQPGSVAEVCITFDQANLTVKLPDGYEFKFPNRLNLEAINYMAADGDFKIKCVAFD

| IC50 [1, 2] | IC50 (human Gal-1 (hGal-1)) | Compound | further results |
| --- | --- | --- | --- |
| 110 nM | 120 nM | CN(CC(F)(F)F)C(=O)[C@@H](S[C@@H]1O[C@H](CO)[C@H](O)[C@H](n2cc(-c3cc(F)c(F)c(F)c3)nn2)[C@H]1O)C1(O)CCC1 [Example 2.34.219S., (S)-2-(((2S,3R,4S,5R,6R)-3,5-Dihydroxy-6-(hydroxymethyl)-4-(4-(3,4,5-trifluorophenyl)-1H-1,2,3-triazol-1-yl)tetrahydro-2H-pyran-2-yl)thio)-2-(1-hydroxycyclobutyl)-N-methyl-N-(2,2,2-trifluoroethyl)acetamide] | – |
| 60 nM | 100 nM | CN(CC(F)(F)F)C(=O)[C@@H](S[C@@H]1O[C@H](CO)[C@H](O)[C@H](n2cc(-c3cc(F)c(F)c(F)c3)nn2)[C@H]1O)C1(O)CCCCC1 [Example 2.39.219S., (S)-2-(((2S,3R,4S,5R,6R)-3,5-Dihydroxy-6-(hydroxymethyl)-4-(4-(3,4,5-trifluorophenyl)-1H-1,2,3-triazol-1-yl)tetrahydro-2H-pyran-2-yl)thio)-2-(1-hydroxycyclohexyl)-N-methyl-N-(2,2,2-trifluoroethyl)acetamide] | – |
| 40 nM | 60 nM | CN(CC1CC1)C(=O)[C@@H](S[C@@H]1O[C@H](CO)[C@H](O)[C@H](n2cc(-c3cc(F)c(F)c(F)c3)nn2)[C@H]1O)C1(O)CC(F)(F)C1 [Example 2.33.218S., (S)-N-(Cyclopropylmethyl)-2-(3,3-difluoro-1-hydroxycyclobutyl)-2-(((2S,3R,4S,5R,6R)-3,5-dihydroxy-6-(hydroxymethyl)-4-(4-(3,4,5-trifluorophenyl)-1H-1,2,3-triazol-1-yl)tetrahydro-2H-pyran-2-yl)thio)-N-methylacetamide] | – |
| – | 800 nM | COCCN(C)C(=O)C(S[C@@H]1O[C@H](CO)[C@H](O)[C@H](n2cc(-c3cc(F)c(F)c(F)c3)nn2)[C@H]1O)C(C)(C)O (stereo partly drawn) [Example 2.31.229., 2-(((2S,3R,4S,5R,6R)-3,5-Dihydroxy-6-(hydroxymethyl)-4-(4-(3,4,5-trifluorophenyl)-1H-1,2,3-triazol-1-yl)tetrahydro-2H-pyran-2-yl)thio)-3-hydroxy-N-(2-methoxyethyl)-N,3-dimethylbutanamide] | IC50 ([1]; Table 6, hGal-3, read-out: IC50 (Gal-3 inhibition)): 110 nM |
| – | 270 nM | CO[C@@H]1[C@@H](n2cc(-c3cc(F)c(F)c(F)c3)nn2)[C@@H](O)[C@@H](CO)O[C@H]1S[C@H](C(=O)N1CCC(F)(F)CC1)C1(O)CCC2(CCCC2)CC1 [Example 2.71.226S.I., (S)-1-(4,4-Difluoropiperidin-1-yl)-2-(((2S,3R,4S,5R,6R)-5-hydroxy-6-(hydroxymethyl)-3-methoxy-4-(4-(3,4,5-trifluorophenyl)-1H-1,2,3-triazol-1-yl)tetrahydro-2H-pyran-2-yl)thio)-2-(8-hydroxyspiro[4.5]decan-8-yl)ethan-1-one] | IC50 [1, 3]: 100 nM |
| 430 nM | 1130 nM | CCN(C)C(=O)C(S[C@@H]1O[C@H](CO)[C@H](O)[C@H](n2cc(-c3cc(F)c(F)c(F)c3)nn2)[C@H]1O)C1(O)CCCC1 (stereo partly drawn) [Example 2.38.203., 2-(((2S,3R,4S,5R,6R)-3,5-Dihydroxy-6-(hydroxymethyl)-4-(4-(3,4,5-trifluorophenyl)-1H-1,2,3-triazol-1-yl)tetrahydro-2H-pyran-2-yl)thio)-N-ethyl-2-(1-hydroxycyclopentyl)-N-methylacetamide] | – |
| – | 8260 nM | CN(C(=O)[C@H](S[C@@H]1O[C@H](CO)[C@H](O)[C@H](n2cc(-c3cc(F)c(F)c(F)c3)nn2)[C@H]1O)C1(O)CCOCC1)c1ccccc1 [Example 2.41.231R.] | IC50 ([1]; Table 9, hGal-3, read-out: IC50 (Gal-3 inhibition)): 3440 nM |
| – | 270 nM | CCC(CC)NC(=O)C(S[C@@H]1O[C@H](CO)[C@H](O)[C@H](n2cc(-c3cc(F)c(F)c(F)c3)nn2)[C@H]1OC)C1(O)CCC(F)(F)CC1 (stereo partly drawn) [Example 2.44.250.I., 2-(4,4-Difluoro-1-hydroxycyclohexyl)-2-(((2S,3R,4S,5R,6R)-5-hydroxy-6-(hydroxymethyl)-3-methoxy-4-(4-(3,4,5-trifluorophenyl)-1H-1,2,3-triazol-1-yl)tetrahydro-2H-pyran-2-yl)thio)-N-(pentan-3-yl)acetamide] | IC50 [1, 4]: 50 nM |
| 40 nM | 90 nM | CN(C(=O)[C@@H](S[C@@H]1O[C@H](CO)[C@H](O)[C@H](n2cc(-c3cc(F)c(F)c(F)c3)nn2)[C@H]1O)C1(O)CCOCC1)C1COC1 [Example 2.41.235S., (S)-2-(((2S,3R,4S,5R,6R)-3,5-Dihydroxy-6-(hydroxymethyl)-4-(4-(3,4,5-trifluorophenyl)-1H-1,2,3-triazol-1-yl)tetrahydro-2H-pyran-2-yl)thio)-2-(4-hydroxytetrahydro-2H-pyran-4-yl)-N-methyl-N-(oxetan-3-yl)acetamide] | – |
| – | 460 nM | 1-(4,4-Difluoropiperidin-1-yl)-2-(4-hydroxy-2,2-dimethyltetrahydro-2H-pyran-4-yl)-2-(((2S,3R,4S,5R,6R)-5-hydroxy-6-(hydroxymethyl)-3-methoxy-4-(4-(3,4,5-trifluorophenyl)-1H-1,2,3-triazol-1-yl)tetrahydro-2H-pyran-2-yl)thio)ethan-1-one [Example 2.43.226.I.] | IC50 [1, 3]: 250 nM |
| – | 650 nM | CO[C@@H]1[C@@H](n2cc(-c3cc(F)c(F)c(F)c3)nn2)[C@@H](O)[C@@H](CO)O[C@H]1SC(C(=O)N(C)CC(F)(F)F)C1(O)CCC(F)(F)CC1 (stereo partly drawn) [Example 2.44.241.I., 2-(4,4-Difluoro-1-hydroxycyclohexyl)-2-(((2S,3R,4S,5R,6R)-5-hydroxy-6-(hydroxymethyl)-3-methoxy-4-(4-(3,4,5-trifluorophenyl)-1H-1,2,3-triazol-1-yl)tetrahydro-2H-pyran-2-yl)thio)-N-methyl-N-(2,2,2-trifluoroethyl)acetamide] | IC50 [1, 4]: 180 nM |
| – | 120 nM | CO[C@@H]1[C@@H](n2cc(-c3cc(F)c(F)c(F)c3)nn2)[C@@H](O)[C@@H](CO)O[C@H]1SC(C(=O)N1CCC(F)(F)CC1)C1(O)CCC2(CCOCC2)CC1 (stereo partly drawn) [Example 2.72.226.I., 1-(4,4-Difluoropiperidin-1-yl)-2-(((2S,3R,4S,5R,6R)-5-hydroxy-6-(hydroxymethyl)-3-methoxy-4-(4-(3,4,5-trifluorophenyl)-1H-1,2,3-triazol-1-yl)tetrahydro-2H-pyran-2-yl)thio)-2-(9-hydroxy-3-oxaspiro[5.5]undecan-9-yl)ethan-1-one] | IC50 [1, 3]: 60 nM |
| – | 30 nM | CN(C(=O)C(S[C@@H]1O[C@H](CO)[C@H](O)[C@H](n2cc(-c3cc(F)c(F)c(F)c3)nn2)[C@H]1O)C1(O)CCOCC1)C1CCC1 (stereo partly drawn) [Example 2.41.220.] | IC50 ([1]; Table 10, hGal-3, read-out: IC50 (Gal-3 inhibition)): 50 nM |
| – | 110 nM | CN(CCC1CCOCC1)C(=O)[C@@H](S[C@@H]1O[C@H](CO)[C@H](O)[C@H](n2cc(-c3cc(F)c(F)c(F)c3)nn2)[C@H]1O)C1(O)CCOCC1 [Example 2.41.216S., (S)-2-(((2S,3R,4S,5R,6R)-3,5-Dihydroxy-6-(hydroxymethyl)-4-(4-(3,4,5-trifluorophenyl)-1H-1,2,3-triazol-1-yl)tetrahydro-2H-pyran-2-yl)thio)-2-(4-hydroxytetrahydro-2H-pyran-4-yl)-N-methyl-N-(2-(tetrahydro-2H-pyran-4-yl)ethyl)acetamide] | IC50 ([1]; Gal-3 inhibition, Table 4, read-out: IC50): 20 nM |

| Compound | IC50 [1, 2] | IC50 (human Gal-1 (hGal-1)) | further results |
| --- | --- | --- | --- |
| 2-(4,4-Difluoro-1-hydroxycyclohexyl)-2-(((2S,3R,4S,5R,6R)-3,5-dihydroxy-6-(hydroxymethyl)-4-(4-(3,4,5-trifluorophenyl)-1H-1,2,3-triazol-1-yl)tetrahydro-2H-pyran-2-yl)thio)-1-(piperidin-1-yl)ethan-1-one [Example 2.44.208.] | 70 nM | 210 nM | – |
